# Tests used:
# Format in all cases: cell-based
# E. coli = assay: Bacterial growth in absorbent cores (method 4), E. coli
# Protocol: (§1) 16 ml (corresponding to a maximum absorption capacity of a test specimen according to method 1) of test liquid 1 containing the bacteria were added to a test specimen placed in plastic tubs, and a lid was fitted on the tubs. The tubs were turned upside down and incubated in a warm cabinet at 35° C. After incubation for 0, 6 and 12 hours, the test samples were placed in a plastic bag with peptone water and the content was homogenized (agitated and worked up) in a stomacker for 3 minutes. The homogenate was diluted in dilution tubes with peptone water and a microbiological culture was spread on agar plates. Slanetz Bartley agar was used for E. faecalis, and Drigalski agar for E. coli and P. mirabilis. The specimens were incubated at 35° C. for 1-2 days before the colonies were counted and the log CFU/ml calculated. Control tests were also carried out with absorbent cores without NaCl.
# (§2) Bacteria were cultured in nutrient broth and diluted to the desired concentration of about Log 3.3 in test liquid 1 (method 4). Absorbent test specimens were produced according to method 1. […] The bacterial growth was measured according to method 4.
# (§3) Absorbent cores were produced according to method 1. […] The bacterial growth of E. coli, P. mirabilis and E. faecalis was measured after 0, 6 and 12 hours according to method 4. […]
# Proteus mirabilis = assay: Ammonia formation in absorbent cores (method 3); settings: Example 2, FIG. 5; specimen containing 29% by weight of NaCl; after 6 and 8 hours
# Protocol: Absorbent test specimens were produced according to method 1. A bacterial suspension of Proteus mirabilis was cultured in nutrient solution at 30° C. overnight. The grafted cultures were diluted with test liquid 1 and the quantity of bacteria was determined. The final culture contained approximately 10^5 organisms per ml of test liquid. The absorbent core was placed in a plastic tub and test liquid 1 containing bacteria was added to the absorbent core, after which the container was incubated at 35° C. for 4, 6 and 8 hours, and then the specimens were removed from the container using a hand pump and a so-called Drager tube. The ammonia content was obtained as a color change on a scale graduated in ppm or percent by volume.
# Absorbent test specimens were produced according to method 1. 16 ml, maximum absorption capacity, of test liquid 1 containing bacteria were added to a test specimen. 29 (high), 22 (medium) and 12 (low) % by weight of NaCl (% dry) and 22 (medium) % by weight of CaCl2 (% dry) were added to the core. The quantity of developed ammonia was measured according to method 3 after 6 and 8 hours. […]
# Absorbent test specimens were produced according to method 1. […] The quantity of added pH-reducing substance was 5% by weight of the pulp. […] The quantity of developed ammonia was measured according to method 3 after 6 and 8 hours.
# P. mirabilis = assay: Bacterial growth in absorbent cores (method 4), P. mirabilis
# Protocol: as §1, §2, §3
# E. faecalis = assay: Bacterial growth in absorbent cores (method 4), E. faecalis
# Protocol: as §1, §2, §3
# [1] = 3% added salt (% wet) = 29% by weight (% dry), NaCl high in FIG. 4, 12 hours, 35° C., 16 ml test liquid 1 (maximum load), start about Log 3.3, method counts log CFU/ml
# [2] = Example 1, FIG. 4, 29, 22 and 12% by weight NaCl (% dry), after 6 and 12 hours, inhibition better with higher salt content
compound,measurement,setting,value
[Cl-].[Na+] [NaCl],growth of E. coli after 12 hours,E. coli; [1],< 5.5 log
same,growth of E. coli compared with the control tests,E. coli; [2],lower
same,"development of NH3, ranking among the specimens",Proteus mirabilis,lowest development of NH3
same,growth of P. mirabilis after 12 hours,P. mirabilis; [1],< 5.5 log
same,growth of P. mirabilis compared with the control tests,P. mirabilis; [2],lower
same,growth of E. faecalis after 12 hours,E. faecalis; [1],< 5.5 log
same,growth of E. faecalis compared with the control tests,E. faecalis; [2],lower

# — patent publication US20090306612A1, “ABSORBENT ARTICLE” (SCA HYGIENE PRODUCTS AB, priority 2006, published 2009)
